Tests used:
[1] = target: Histone acetyltransferase KAT2B (Homo sapiens, UniProt Q92831); assay: Inhibition of GST-fused recombinant HAT PCAF expressed in Escherichia coli by filter assay
[2] = target: T1, Histone acetyltransferase p300 (Homo sapiens, UniProt Q09472); assay: Inhibition of GST-fused recombinant HAT p300 expressed in Escherichia coli by filter assay
[3] = target: T1, Histone acetyltransferase p300; assay: Inhibition of recombinant His-tagged HAT p300 expressed in Sf21-Baculovirus system
[4] = target: T1, Histone acetyltransferase p300; assay: Inhibition of HAT p300

T1 sequence (Q09472 whole entry, the tested form may be a part): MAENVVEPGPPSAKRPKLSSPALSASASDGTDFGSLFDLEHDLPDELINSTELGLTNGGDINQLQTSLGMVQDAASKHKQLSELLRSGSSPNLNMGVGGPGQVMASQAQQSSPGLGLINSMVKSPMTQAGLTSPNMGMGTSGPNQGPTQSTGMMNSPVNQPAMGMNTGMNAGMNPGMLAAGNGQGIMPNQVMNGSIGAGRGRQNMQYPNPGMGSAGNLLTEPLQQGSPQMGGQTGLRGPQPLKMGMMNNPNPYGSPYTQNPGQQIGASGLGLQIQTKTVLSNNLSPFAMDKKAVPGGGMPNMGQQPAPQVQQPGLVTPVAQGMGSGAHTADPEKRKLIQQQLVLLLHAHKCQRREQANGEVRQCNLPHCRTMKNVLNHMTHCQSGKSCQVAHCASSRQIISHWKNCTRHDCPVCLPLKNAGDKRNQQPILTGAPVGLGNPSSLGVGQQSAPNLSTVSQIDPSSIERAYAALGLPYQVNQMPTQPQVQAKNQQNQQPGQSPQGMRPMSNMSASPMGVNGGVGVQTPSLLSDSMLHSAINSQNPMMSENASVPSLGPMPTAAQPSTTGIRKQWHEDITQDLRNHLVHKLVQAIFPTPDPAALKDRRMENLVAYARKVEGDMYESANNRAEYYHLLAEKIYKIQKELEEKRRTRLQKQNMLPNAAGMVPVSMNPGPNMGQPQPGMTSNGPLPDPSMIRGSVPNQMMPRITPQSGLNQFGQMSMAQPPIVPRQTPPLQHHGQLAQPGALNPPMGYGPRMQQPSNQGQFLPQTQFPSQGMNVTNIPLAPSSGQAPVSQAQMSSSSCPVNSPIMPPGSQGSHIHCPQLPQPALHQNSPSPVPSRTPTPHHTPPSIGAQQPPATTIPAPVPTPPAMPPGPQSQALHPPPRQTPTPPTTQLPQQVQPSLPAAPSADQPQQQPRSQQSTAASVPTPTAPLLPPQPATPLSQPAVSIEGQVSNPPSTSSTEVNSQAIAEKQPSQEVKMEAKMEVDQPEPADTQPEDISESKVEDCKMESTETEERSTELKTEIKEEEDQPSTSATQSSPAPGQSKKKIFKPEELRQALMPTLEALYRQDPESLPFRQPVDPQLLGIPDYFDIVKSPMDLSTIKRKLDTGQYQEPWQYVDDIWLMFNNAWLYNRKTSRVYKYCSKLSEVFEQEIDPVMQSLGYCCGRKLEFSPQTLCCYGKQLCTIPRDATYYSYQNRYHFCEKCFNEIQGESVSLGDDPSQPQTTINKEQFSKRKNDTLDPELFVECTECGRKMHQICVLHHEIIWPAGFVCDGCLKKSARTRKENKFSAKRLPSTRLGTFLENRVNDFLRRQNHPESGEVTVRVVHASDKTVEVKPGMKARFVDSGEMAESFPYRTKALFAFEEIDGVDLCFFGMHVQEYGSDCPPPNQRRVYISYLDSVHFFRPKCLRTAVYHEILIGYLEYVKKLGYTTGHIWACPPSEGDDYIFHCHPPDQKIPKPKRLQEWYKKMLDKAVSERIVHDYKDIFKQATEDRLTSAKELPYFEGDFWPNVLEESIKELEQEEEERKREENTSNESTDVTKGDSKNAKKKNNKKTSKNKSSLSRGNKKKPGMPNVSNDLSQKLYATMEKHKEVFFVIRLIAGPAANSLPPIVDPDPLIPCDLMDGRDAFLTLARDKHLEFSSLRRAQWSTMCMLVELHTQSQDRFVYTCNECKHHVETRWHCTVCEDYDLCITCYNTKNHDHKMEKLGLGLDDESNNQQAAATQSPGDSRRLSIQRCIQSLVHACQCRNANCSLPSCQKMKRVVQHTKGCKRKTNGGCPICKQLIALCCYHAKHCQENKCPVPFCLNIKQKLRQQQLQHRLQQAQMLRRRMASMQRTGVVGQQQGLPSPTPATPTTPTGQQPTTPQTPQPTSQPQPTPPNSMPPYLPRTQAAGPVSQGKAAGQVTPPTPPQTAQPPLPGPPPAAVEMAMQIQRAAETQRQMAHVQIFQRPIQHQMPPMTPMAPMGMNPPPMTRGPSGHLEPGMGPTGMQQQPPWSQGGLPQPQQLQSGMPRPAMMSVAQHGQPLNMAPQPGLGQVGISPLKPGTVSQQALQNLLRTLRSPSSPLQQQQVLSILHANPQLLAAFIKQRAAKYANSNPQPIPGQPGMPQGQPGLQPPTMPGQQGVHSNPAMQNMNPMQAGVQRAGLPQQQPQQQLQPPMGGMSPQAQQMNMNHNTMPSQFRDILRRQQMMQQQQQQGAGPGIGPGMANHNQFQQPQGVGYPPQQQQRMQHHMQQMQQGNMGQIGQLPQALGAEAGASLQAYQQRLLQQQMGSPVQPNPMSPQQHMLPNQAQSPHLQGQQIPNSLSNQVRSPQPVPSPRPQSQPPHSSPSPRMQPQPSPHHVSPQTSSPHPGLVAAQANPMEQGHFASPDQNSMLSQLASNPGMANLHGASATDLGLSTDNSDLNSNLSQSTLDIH
Chain of Histone acetyltransferase KAT2B (Q92831 whole entry, the tested form may be a part): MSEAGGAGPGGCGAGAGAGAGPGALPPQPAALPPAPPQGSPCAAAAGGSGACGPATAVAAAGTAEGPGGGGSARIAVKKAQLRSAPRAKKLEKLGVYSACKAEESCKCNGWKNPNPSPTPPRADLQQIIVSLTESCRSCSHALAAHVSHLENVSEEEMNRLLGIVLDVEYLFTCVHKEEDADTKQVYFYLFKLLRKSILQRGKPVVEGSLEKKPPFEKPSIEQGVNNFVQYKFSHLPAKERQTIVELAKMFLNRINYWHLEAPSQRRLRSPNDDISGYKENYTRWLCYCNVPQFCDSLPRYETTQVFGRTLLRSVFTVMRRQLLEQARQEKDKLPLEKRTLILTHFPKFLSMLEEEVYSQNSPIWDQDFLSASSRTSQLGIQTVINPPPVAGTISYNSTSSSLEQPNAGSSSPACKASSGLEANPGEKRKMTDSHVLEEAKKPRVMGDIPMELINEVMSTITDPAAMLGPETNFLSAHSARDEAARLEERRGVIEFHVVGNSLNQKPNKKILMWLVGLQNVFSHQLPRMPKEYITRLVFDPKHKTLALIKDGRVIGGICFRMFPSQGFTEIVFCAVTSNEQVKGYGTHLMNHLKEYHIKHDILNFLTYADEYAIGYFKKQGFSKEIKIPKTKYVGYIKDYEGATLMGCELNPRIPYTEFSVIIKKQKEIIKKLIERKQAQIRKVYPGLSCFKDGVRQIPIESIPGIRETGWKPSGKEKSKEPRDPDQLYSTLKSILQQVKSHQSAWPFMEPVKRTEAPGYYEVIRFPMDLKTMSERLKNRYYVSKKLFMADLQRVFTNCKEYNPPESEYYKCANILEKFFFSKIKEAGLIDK

| Compound | IC50 [1] [µM] | also measured |
| --- | --- | --- |
| O=c1cc(CO)sn1-c1ccccc1 | 109 | – |
| Cc1cc(=O)n(-c2ccccc2)s1 | > 200 | – |
| O=c1cc(-c2ccccc2)sn1-c1ccccc1 | > 200 | – |
| COCc1csn(-c2ccccc2)c1=O | 102 | – |
| C=CC/C=C\C/C=C\CCCCCCCc1cccc(O)c1C(=O)O [ANACARDIC ACID] | – | IC50 [3]: 5 µM |
| O=c1ccsn1-c1ccccc1 | 28 | IC50 [2]: 23 µM |
| COc1sn(-c2ccccc2)c(=O)c1C | > 200 | – |
| CC(=O)OCc1cc(=O)n(-c2ccccc2)s1 | 162 | – |
| C=C(C)[C@@H](CC=C(C)C)C[C@@]12C[C@@H](CC=C(C)C)C(C)(C)[C@@](CC=C(C)C)(C(=O)C(C(=O)c3ccc(O)c(O)c3)=C1O)C2=O [GARCINOL] | – | IC50 [4]: 6 µM |
| O=c1ccsn1-c1cccc(Cl)c1F | 5.4 | – |
| O=C(Nc1ccccc1)OCc1cc(=O)n(-c2ccccc2)s1 | > 200 | – |

Continued, in another order:

| IC50 [1] [µM] | Compound | also measured |
| --- | --- | --- |
| 42.7 | [N-]=[N+]=NCc1csn(-c2ccccc2)c1=O | – |
| 6.5 | O=c1ccsn1-c1cccnc1 | IC50 [2]: 14.4 µM |
| 5.4 | CN(C)c1ccc(-n2sccc2=O)cc1 | – |
| 19.8 | Cc1c(Cl)sn(-c2ccccc2)c1=O | – |
| 3.1 | O=c1ccsn1-c1cc(F)c(F)c(F)c1 | – |
| 32 | Cc1csn(-c2ccccc2)c1=O | – |
| 6.1 | O=c1c2cccnc2sn1-c1ccccc1 | – |
| 19 | O=c1ccsn1-c1ccccn1 | IC50 [2]: 28 µM |
| 1.5 | O=c1ccsn1-c1ccncc1 | IC50 [2]: 3 µM |
| 58 | [N-]=[N+]=NCc1cc(=O)n(-c2ccccc2)s1 | – |
| 7.5 | O=c1ccsn1-c1ccc(N2CCOCC2)cc1 | IC50 [2]: 9.9 µM |

Reference: ChEMBL document CHEMBL1140879, “Synthesis of isothiazol-3-one derivatives as inhibitors of histone acetyltransferases (HATs)” (Bioorg Med Chem, 2009)
